{"source": "patent US9527885B2", "about": "“Hepatitis C virus inhibitors” (BRISTOL-MYERS SQUIBB COMPANY, priority 2011, dated 2016)", "key": {"[1]": {"system": "HCV genotype 1a (H77 strain) replicon in HUH-7 cells", "test": "HCV replicon luciferase reporter assay, genotype 1a", "type": "cell-based", "settings": "Hepatitis C virus, Huh-7, 72 h, HCV genotype 1a replicon luciferase, 3 days incubation, range class, read-out: LE_1a (EC50, range)", "method_in_brief": "(§1)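 Twenty-point, threefold compound titrations (0.5% DMSO) were incubated 3 days at 37 °C with 3.0×10^3 HUH-7 cells/well in 4% FCS. The cells stably carried luciferase replicons: genotype 1b Con1 (S1179I) or 1a H77 (NS3 P1496L, NS5A S2204I). Renilla signal was read after 2 h with 7.5 μM EnduRen, and EC50 was taken from a four-parameter logistic fit. Cytotoxicity (CC50) was measured by Cell Titer-Blue, 8 h.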"}, "[2]": {"system": "HCV genotype 1b (Con1) replicon in HUH-7 cells", "test": "HCV replicon luciferase reporter assay, genotype 1b", "type": "cell-based", "settings": "Hepatitis C virus, 72 h, HCV genotype 1b replicon luciferase, 3 days incubation, range class, read-out: LE_1b (EC50, range)", "method_in_brief": "as §1"}}}
{"compound": "[2H]C([2H])([2H])C(C)(OC(=O)N[C@@H]1C(=O)N2C[C@H](Oc3nccc4cc(OC)ccc34)C[C@H]2C(=O)N[C@]2(C(=O)NS(=O)(=O)C3(C)CC3)C[C@H]2/C=C\\CC[C@H](C)C[C@H]1C)C([2H])([2H])[2H]", "note": "[Compound 5176, 1,1,1,3,3,3-hexadeutero-2-methylpropan-2-yl ((2R,6S,7R,9S,13aS,14aR,16aS,Z)-2-((6-methoxyisoquinolin-1-yl)oxy)-7,9-dimethyl-14a-(((1-methylcyclopropyl)sulfonyl)carbamoyl)-5,16-dioxo-1,2,3,5,6,7,8,9,10,11,13a,14,14a,15,16,16a-hexadecahydrocyclopropa[e]pyrrolo[1,2-a][1,4]diazacyclopentadecin-6-yl)carbamate]", "values": [{"measurement": "EC50", "setting": "[1]", "result": "4.82 to 103", "unit": "nM"}, {"measurement": "EC50", "setting": "[2]", "result": "< 5.46", "unit": "nM"}]}
